In PubChem BioAssay AID296 (DTP/NCI, 2004):
Several values for one entry are separate records, joined by “and”; a condition that tells them apart may be missing. Equal values may be shown once. Inconclusive results are not listed.

System: MX-1 breast xenograft, nude mice, tumor weight T/C
Assay: NCI In Vivo Anticancer Drug Screen. Data for tumor model Human Mammary Carcinoma MX-1 Xenograft (intrarenal inoculation) in NU/NU Swiss (nude) mice
Details: endpoint: mean tumor weight change, higher = larger tumour
Protocol: The antitumor activity of compounds was measured in mice bearing transplantable tumors. Survival or tumor size were measured and the results are expressed as the measurement made in the treated group (T) divided by the measurement made in the vehicle treated control group (C). The tumor model used in this assay is Human Mammary Carcinoma MX-1 Xenograft (intrarenal inoculation) in NU/NU Swiss (nude) mice

[1] = dose: 75.0 mg/kg/injection, schedule: Q04DX003 (sc), vehicle: Klucel (hydroxypropylcellulose) (HPC)
[2] = dose: 12.5 mg/kg/injection, schedule: Q01DX010 (sc), vehicle: Klucel (hydroxypropylcellulose) (HPC)
[3] = dose: 150.0 mg/kg/injection, schedule: Q04DX003 (sc), vehicle: Klucel (hydroxypropylcellulose) (HPC)
[4] = dose: 300.0 mg/kg/injection, schedule: Q04DX003 (sc), vehicle: Klucel (hydroxypropylcellulose) (HPC)
[5] = dose: 600.0 mg/kg/injection, schedule: Q04DX003 (sc), vehicle: Klucel (hydroxypropylcellulose) (HPC)
[6] = dose: 600.0 mg/kg/injection, schedule: Q04DX003 (sc), vehicle: saline with Tween-80
[7] = dose: 25.0 mg/kg/injection, schedule: Q01DX010 (sc), vehicle: suspension in saline
[8] = dose: 50.0 mg/kg/injection, schedule: Q01DX010 (sc), vehicle: suspension in saline
[9] = dose: 100.0 mg/kg/injection, schedule: Q01DX010 (sc), vehicle: suspension in saline
[10] = dose: 200.0 mg/kg/injection, schedule: Q01DX010 (sc), vehicle: suspension in saline

SMILES: ClCC[N+]12CC[N+](CCCl)(CC1)C2
- T/C (dose: 3.12 mg/kg/injection, schedule: Q01DX010 (sc), vehicle: saline with Tween-80): 106 % of control
- T/C (dose: 6.25 mg/kg/injection, schedule: Q01DX010 (sc), vehicle: saline with Tween-80): 69 % of control
- T/C (dose: 12.5 mg/kg/injection, schedule: Q01DX010 (sc), vehicle: saline with Tween-80): 108 % of control
- T/C (dose: 25.0 mg/kg/injection, schedule: Q01DX010 (sc), vehicle: saline with Tween-80): 96 % of control
- T/C (dose: 50.0 mg/kg/injection, schedule: Q01DX010 (sc), vehicle: water): 39 % of control and 57 % of control
- T/C (dose: 75.0 mg/kg/injection, schedule: Q04DX003 (sc), vehicle: water): 51 % of control
- T/C (dose: 100.0 mg/kg/injection, schedule: Q01DX010 (sc), vehicle: water): 7 % of control and 13 % of control
- T/C (dose: 135.0 mg/kg/injection, schedule: Q04DX003 (sc), vehicle: water): 45 % of control and 63 % of control
- T/C (dose: 150.0 mg/kg/injection, schedule: Q01DX010 (sc), vehicle: water): 15 % of control
- T/C (dose: 150.0 mg/kg/injection, schedule: Q04DX003 (sc), vehicle: water): 32 % of control
- T/C (dose: 200.0 mg/kg/injection, schedule: Q01DX010 (sc), vehicle: water): -36 % of control and -32 % of control
- T/C (dose: 400.0 mg/kg/injection, schedule: Q01DX010 (sc), vehicle: saline with Tween-80): 5 % of control
- T/C (dose: 450.0 mg/kg/injection, schedule: Q04DX003 (sc), vehicle: water): 12 % of control and 27 % of control

SMILES: CCCCCCCCCCCCCCCCCC(=O)OCC(=O)OCC(=O)[C@]1(O)Cc2c(O)c3c(c(O)c2[C@@H](OC2CC(N)C(O)C(C)O2)C1)C(=O)c1c(OC)cccc1C3=O (some centres undefined)
- T/C (dose: 6.0 mg/kg/injection, schedule: Q01DX010 (sc), vehicle: water): 48 % of control
- T/C (dose: 12.0 mg/kg/injection, schedule: Q01DX010 (sc), vehicle: water): 21 % of control

SMILES: C=C(Cl)C(=NC(C)(C)C)Nc1ccccc1C
- T/C [1]: 96 % of control

SMILES: C=C1C(=O)OCC2C(C(=O)O)=CC3C(C)C(C)=CC123 (centres undefined)
- T/C (dose: 6.25 mg/kg/injection, schedule: Q01DX010 (sc), vehicle: Klucel (hydroxypropylcellulose) (HPC)): 78 % of control
- T/C [2]: 113 % of control

SMILES: COc1cc(C(=O)c2cocc2C(=O)c2ccc3c(c2)OCO3)cc(OC)c1OC
- T/C [3]: 74 % of control
- T/C [4]: 52 % of control
- T/C [5]: 56 % of control
- T/C (dose: 1200.0 mg/kg/injection, schedule: Q04DX003 (sc), vehicle: Klucel (hydroxypropylcellulose) (HPC)): 44 % of control

SMILES: O=Cc1c(O)c2ccccc2[nH]c1=O
- T/C (dose: 150.0 mg/kg/injection, schedule: Q04DX003 (sc), vehicle: saline with Tween-80): 118 % of control
- T/C (dose: 300.0 mg/kg/injection, schedule: Q04DX003 (sc), vehicle: saline with Tween-80): 99 % of control
- T/C [6]: 86 % of control

SMILES: C/C=C(\C)c1cc(=O)c2c(C)cc3c(c2o1)C(=O)c1c(O)c(C2CC(C)(N(C)C)C(O)C(C)O2)cc(C2CC(N(C)C)C(O)C(C)O2)c1C3=O (centres undefined)
- T/C (dose: 2.0 mg/kg/injection, schedule: Q04DX003 (sc), vehicle: saline): 41 % of control
- T/C (dose: 4.0 mg/kg/injection, schedule: Q04DX003 (sc), vehicle: saline): 24 % of control
- T/C (dose: 8.0 mg/kg/injection, schedule: Q04DX003 (sc), vehicle: saline): 28 % of control

SMILES: Oc1ccccc1C=NCCC[N-]CCCN=Cc1ccccc1O.[Co]
- T/C [7]: 85 % of control
- T/C [8]: 93 % of control
- T/C [9]: 40 % of control
- T/C [10]: 31 % of control

SMILES: CCOc1ccc(-c2nc3ccc(-c4nc5ccc(N6CCN(C)CC6)cc5[nH]4)cc3[nH]2)cc1
- T/C (dose: 25.0 mg/kg/injection, schedule: Q04DX003 (ip), vehicle: saline): 96 % of control

SMILES: C[C@]12CCC(=O)C=C1CC[C@@H]1[C@@H]2[C@@H](O)C[C@@]2(C)[C@H]1CC[C@]2(O)C(=O)CO
- T/C [1]: 117 % of control
- T/C [3]: 45 % of control
- T/C [4]: 33 % of control
- T/C [5]: 33 % of control

SMILES: COc1cc([C@@H]2c3cc4c(cc3[C@@H](OC3OC5CO[C@@H](c6cccs6)OC5C(O)C3O)[C@H]3COC(=O)[C@H]23)OCO4)cc(OC)c1O (some centres undefined)
- T/C (dose: 8.0 mg/kg/injection, schedule: Q01DX010 (sc), vehicle: saline): 67 % of control
- T/C (dose: 16.0 mg/kg/injection, schedule: Q01DX010 (sc), vehicle: saline): 60 % of control
- T/C (dose: 32.0 mg/kg/injection, schedule: Q01DX010 (sc), vehicle: saline): 96 % of control
- T/C (dose: 64.0 mg/kg/injection, schedule: Q01DX010 (sc), vehicle: saline): 44 % of control
- T/C (dose: 66.0 mg/kg/injection, schedule: Q01DX010 (sc), vehicle: saline): 55 % of control
- T/C (dose: 132.0 mg/kg/injection, schedule: Q01DX010 (sc), vehicle: saline): 34 % of control
- T/C (dose: 264.0 mg/kg/injection, schedule: Q01DX010 (sc), vehicle: saline): 40 % of control
- T/C (dose: 528.0 mg/kg/injection, schedule: Q01DX010 (sc), vehicle: saline): 79 % of control

SMILES: O=S(=O)(O)O.[NH-]C1CCCCC1[NH-].[Pt+2] (centres undefined)
- T/C (dose: 0.63 mg/kg/injection, schedule: Q01DX010 (sc), vehicle: dextrose): 95 % of control and 111 % of control and 115 % of control
- T/C (dose: 2.5 mg/kg/injection, schedule: Q01DX010 (sc), vehicle: dextrose): 10 % of control and 12 % of control

SMILES: CC1(CO)C(O)CCC2(C)C1CCC1CC3CC12CCC3(O)CO (centres undefined)
- T/C (dose: 50.0 mg/kg/injection, schedule: Q01DX010 (sc), vehicle: saline with Tween-80): 56 % of control
- T/C (dose: 100.0 mg/kg/injection, schedule: Q01DX010 (sc), vehicle: saline with Tween-80): 38 % of control

SMILES: COc1ccc(-c2csc(=[N+]3CCCCC3)s2)cc1
- T/C (dose: 3.12 mg/kg/injection, schedule: Q04DX003 (sc), vehicle: water): 89 % of control
- T/C (dose: 6.25 mg/kg/injection, schedule: Q04DX003 (sc), vehicle: water): 85 % of control
- T/C (dose: 12.5 mg/kg/injection, schedule: Q04DX003 (sc), vehicle: water): 89 % of control

SMILES: COC1=CCC23C(=O)C=CC(=O)C2(C1)C(=O)c1ccccc1C3=O (centres undefined)
- T/C (dose: 37.5 mg/kg/injection, schedule: Q04DX003 (ip), vehicle: saline with Tween-80): 109 % of control

SMILES: CCC[CH2][Sn]1([CH2]CCC)[O]C2C(CO)OC(n3ccc(N)nc3=O)C2[O]1 (centres undefined)
- T/C (dose: 12.0 mg/kg/injection, schedule: Q04DX003 (sc), vehicle: Klucel (hydroxypropylcellulose) (HPC)): 55 % of control
- T/C (dose: 24.0 mg/kg/injection, schedule: Q04DX003 (sc), vehicle: Klucel (hydroxypropylcellulose) (HPC)): 59 % of control

SMILES: O=C1CN(CN2CCOCC2)C(=O)CN1CN1CCOCC1
- T/C [7]: 117 % of control
- T/C [8]: 119 % of control
- T/C [9]: 161 % of control
- T/C [10]: 87 % of control

SMILES: C[C@]12C=CC(=O)C=C1CC[C@@H]1[C@@H]2[C@@H](O)C[C@@]2(C)[C@H]1CC[C@]2(O)C(=O)CO
- T/C [2]: 50 % of control
- T/C (dose: 25.0 mg/kg/injection, schedule: Q01DX010 (sc), vehicle: Klucel (hydroxypropylcellulose) (HPC)): 67 % of control
- T/C (dose: 50.0 mg/kg/injection, schedule: Q01DX010 (sc), vehicle: Klucel (hydroxypropylcellulose) (HPC)): 55 % of control
- T/C (dose: 100.0 mg/kg/injection, schedule: Q01DX010 (sc), vehicle: Klucel (hydroxypropylcellulose) (HPC)): 24 % of control

SMILES: CCCCCCCCCCCCCCCC(=O)OCC1OC(n2ccc(N)nc2=O)C(O)C1O (centres undefined)
- T/C (dose: 37.5 mg/kg/injection, schedule: Q04DX003 (sc), vehicle: saline with Tween-80): 30 % of control
- T/C [6]: 11 % of control

SMILES: CCN=C=NCCCN(C)C
- T/C (dose: 25.0 mg/kg/injection, schedule: Q04DX003 (sc), vehicle: saline): 112 % of control
- T/C (dose: 50.0 mg/kg/injection, schedule: Q04DX003 (sc), vehicle: saline): 76 % of control

SMILES: Cc1noc(N)c1N
- T/C (dose: 300.0 mg/kg/injection, schedule: Q04DX003 (sc), vehicle: water): 102 % of control
- T/C (dose: 600.0 mg/kg/injection, schedule: Q04DX003 (sc), vehicle: water): 97 % of control
- T/C (dose: 1200.0 mg/kg/injection, schedule: Q04DX003 (sc), vehicle: water): 102 % of control
- T/C (dose: 2400.0 mg/kg/injection, schedule: Q04DX003 (sc), vehicle: water): 92 % of control

SMILES: CC(=O)Oc1c(C)[nH]ccc1=O
- T/C (dose: 200.0 mg/kg/injection, schedule: Q04DX003 (sc), vehicle: suspension in saline): 72 % of control
- T/C (dose: 400.0 mg/kg/injection, schedule: Q04DX003 (sc), vehicle: suspension in saline): 87 % of control
- T/C (dose: 800.0 mg/kg/injection, schedule: Q04DX003 (sc), vehicle: suspension in saline): 79 % of control
